# Reference: patent US20220169628A1 (University of Florida Research Foundation, Incorporated, priority 2019, published 2022)
# Read-outs that look alike come from different tables or passages of the source.
# Key:
# MOLT-4 cells = experiment: Cell viability assay, MTS, 48 h, MOLT-4; type: cell-based; details: 48 hours, read-out: IC50 (48 hours) MOLT-4
# Protocol: (§1) Acute lymphoblastic leukemia cells (MOLT-4 and RS4; 11) or small cell lung cancer (NCI-H146 or simply H146) were incubated with increasing concentrations of Bcl-xL degraders for 48 h. Cell viability was measured by tetrazolium-based MTS assay.
# RS4;11 cells = experiment: Cell viability assay, MTS, 48 h, RS4;11; type: cell-based; details: 48 hours, read-out: IC50 (48 hours) RS4;11
# Protocol: as §1
molecule,measurement,setting,value
"Cc1ncsc1-c1ccc([C@H](C)NC(=O)[C@@H]2C[C@@H](O)CN2C(=O)[C@@H](NC(=O)CCCCCCC(=O)N[C@H]2CCCN(CC3(C)CCC(c4ccc(Cl)cc4)=C(CN4CCN(c5ccc(C(=O)NS(=O)(=O)c6ccc(N[C@H](CCN7CCOCC7)CSc7ccccc7)c(S(=O)(=O)C(F)(F)F)c6)cc5)CC4)C3)C2)C(C)(C)C)cc1 (stereo partly drawn) [degrader #47, N1-((3S)-1-((4′-chloro-4-methyl-6-((4-(4-(((4-(((R)-4-morpholino-1-(phenylthio)butan-2-yl)amino)-3-((trifluoromethyl)sulfonyl)phenyl)sulfonyl)carbamoyl)phenyl)piperazin-1-yl)methyl)-2,3,4,5-tetrahydro-[1,1′-biphenyl]-4-yl)methyl)piperidin-3-yl)-N8-((S)-1-((2S,4R)-4-hydroxy-2-(((S)-1-(4-(4-methylthiazol-5-yl)phenyl)ethyl)carbamoyl)pyrrolidin-1-yl)-3,3-dimethyl-1-oxobutan-2-yl)octanediamide]",IC50,"MOLT-4 cells; Homo sapiens, MOLT-4, 48 h",50 to 150 nM
same,IC50,"RS4;11 cells; Homo sapiens, RS4-11, 48 h",50 to 150 nM
"(S)-13-((2S,4R)-4-hydroxy-2-(((S)-1-(4-(4-methylthiazol-5-yl)phenyl)ethyl)carbamoyl)pyrrolidine-1-carbonyl)-14,14-dimethyl-11-oxo-3,6,9-trioxa-12-azapentadecyl 4-(4-chlorophenyl)-5-((4-(4-(((4-(((R)-4-morpholino-1-(phenylthio)butan-2-yl)amino)-3-((trifluoromethyl)sulfonyl)phenyl)sulfonyl)carbamoyl)phenyl)piperazin-1-yl)methyl)-3,6-dihydropyridine-1(2H)-carboxylate [Example 8]",IC50,MOLT-4 cells,150 to 500 nM
same,IC50,RS4;11 cells,150 to 500 nM
"Cc1ncsc1-c1ccc([C@H](C)NC(=O)[C@@H]2C[C@@H](O)CN2C(=O)[C@@H](NC(=O)CCC(=O)N2CCC(c3ccc(Cl)cc3)=C(CN3CCN(c4ccc(C(=O)NS(=O)(=O)c5ccc(N[C@H](CCN6CCOCC6)CSc6ccccc6)c(S(=O)(=O)C(F)(F)F)c5)cc4)CC3)C2)C(C)(C)C)cc1 [compound 79, (2S,4R)-1-((S)-2-(4-(4-(4-chlorophenyl)-5-((4-(4-(((4-(((R)-4-morpholino-1-(phenylthio)butan-2-yl)amino)-3-((trifluoromethyl)sulfonyl)phenyl)sulfonyl)carbamoyl)phenyl)piperazin-1-yl)methyl)-3,6-dihydropyridin-1(2H)-yl)-4-oxobutanamido)-3,3-dimethylbutanoyl)-4-hydroxy-N—((S)-1-(4-(4-methylthiazol-5-yl)phenyl)ethyl)pyrrolidine-2-carboxamide]",IC50,"MOLT-4 cells; Homo sapiens, MOLT-4, 48 h",> 500 nM
same,IC50,"RS4;11 cells; Homo sapiens, RS4-11, 48 h",> 500 nM
"CC1(CNC(=O)CCCCCNc2cccc3c2C(=O)N(C2CCC(=O)NC2=O)C3=O)CCC(c2ccc(Cl)cc2)=C(CN2CCN(c3ccc(C(=O)NS(=O)(=O)c4ccc(N[C@H](CCN5CCOCC5)CSc5ccccc5)c(S(=O)(=O)C(F)(F)F)c4)cc3)CC2)C1 (stereo partly drawn) [compound 71, 4-(4-((4′-chloro-4-((6-((2-(2,6-dioxopiperidin-3-yl)-1,3-dioxoisoindolin-4-yl)amino)hexanamido)methyl)-4-methyl-3,4,5,6-tetrahydro-[1,1′-biphenyl]-2-yl)methyl)piperazin-1-yl)-N-((4-(((R)-4-morpholino-1-(phenylthio)butan-2-yl)amino)-3-((trifluoromethyl)sulfonyl)phenyl)sulfonyl)benzamide]",IC50,"MOLT-4 cells; Homo sapiens, MOLT-4, 48 h",< 50 nM
same,IC50,"RS4;11 cells; Homo sapiens, RS4-11, 48 h",< 50 nM
"CC1(CNC(=O)CCCCCCCCCCNc2cccc3c2C(=O)N(C2CCC(=O)NC2=O)C3=O)CCC(c2ccc(Cl)cc2)=C(CN2CCN(c3ccc(C(=O)NS(=O)(=O)c4ccc(N[C@H](CCN5CCOCC5)CSc5ccccc5)c(S(=O)(=O)C(F)(F)F)c4)cc3)CC2)C1 (stereo partly drawn) [compound 75, 4-(4-((4′-chloro-4-((11-((2-(2,6-dioxopiperidin-3-yl)-1,3-dioxoisoindolin-4-yl)amino)undecanamido)methyl)-4-methyl-3,4,5,6-tetrahydro-[1,1′-biphenyl]-2-yl)methyl)piperazin-1-yl)-N-((4-(((R)-4-morpholino-1-(phenylthio)butan-2-yl)amino)-3-((trifluoromethyl)sulfonyl)phenyl)sulfonyl)benzamide]",IC50,"MOLT-4 cells; Homo sapiens, MOLT-4, 48 h",50 to 150 nM
same,IC50,"RS4;11 cells; Homo sapiens, RS4-11, 48 h",150 to 500 nM
"CC1(CNC(=O)COCCNc2cccc3c2C(=O)N(C2CCC(=O)NC2=O)C3=O)CCC(c2ccc(Cl)cc2)=C(CN2CCN(c3ccc(C(=O)NS(=O)(=O)c4ccc(N[C@H](CCN5CCOCC5)CSc5ccccc5)c(S(=O)(=O)C(F)(F)F)c4)cc3)CC2)C1 (stereo partly drawn) [compound 76, 4-(4-((4′-chloro-4-((2-(2-((2-(2,6-dioxopiperidin-3-yl)-1,3-dioxoisoindolin-4-yl)amino)ethoxy)acetamido)methyl)-4-methyl-3,4,5,6-tetrahydro-[1,1′-biphenyl]-2-yl)methyl)piperazin-1-yl)-N-((4-(((R)-4-morpholino-1-(phenylthio)butan-2-yl)amino)-3-((trifluoromethyl)sulfonyl)phenyl)sulfonyl)benzamide]",IC50,"MOLT-4 cells; Homo sapiens, MOLT-4, 48 h",50 to 150 nM
same,IC50,"RS4;11 cells; Homo sapiens, RS4-11, 48 h",50 to 150 nM
"(2S,4R)-1-((S)-2-(9-(4-(4-chlorophenyl)-5-((4-(4-(((4-(((R)-4-morpholino-1-(phenylthio)butan-2-yl)amino)-3-((trifluoromethyl)sulfonyl)phenyl)sulfonyl)carbamoyl)phenyl)piperazin-1-yl)methyl)-3,6-dihydropyridin-1(2H)-yl)-9-oxononanamido)-3,3-dimethylbutanoyl)-4-hydroxy-N—((S)-1-(4-(4-methylthiazol-5-yl)phenyl)ethyl)pyrrolidine-2-carboxamide [Example 4]",IC50,MOLT-4 cells,50 to 150 nM
same,IC50,RS4;11 cells,< 50 nM
"Cc1ncsc1-c1ccc([C@H](C)NC(=O)[C@@H]2C[C@@H](O)CN2C(=O)[C@@H](NC(=O)COCCOCCOCCOCCOC(=O)N2CCC(c3ccc(Cl)cc3)=C(CN3CCN(c4ccc(C(=O)NS(=O)(=O)c5ccc(N[C@H](CCN6CCOCC6)CSc6ccccc6)c(S(=O)(=O)C(F)(F)F)c5)cc4)CC3)C2)C(C)(C)C)cc1 [compound 87, (S)-16-((2S,4R)-4-hydroxy-2-(((S)-1-(4-(4-methylthiazol-5-yl)phenyl)ethyl)carbamoyl)pyrrolidine-1-carbonyl)-17,17-dimethyl-14-oxo-3,6,9,12-tetraoxa-15-azaoctadecyl 4-(4-chlorophenyl)-5-((4-(4-(((4-(((R)-4-morpholino-1-(phenylthio)butan-2-yl)amino)-3-((trifluoromethyl)sulfonyl)phenyl)sulfonyl)carbamoyl)phenyl)piperazin-1-yl)methyl)-3,6-dihydropyridine-1(2H)-carboxylate]",IC50,"MOLT-4 cells; Homo sapiens, MOLT-4, 48 h",> 500 nM
same,IC50,"RS4;11 cells; Homo sapiens, RS4-11, 48 h",> 500 nM
"Cc1ncsc1-c1ccc([C@H](C)NC(=O)[C@@H]2C[C@@H](O)CN2C(=O)[C@@H](NC(=O)CCCCCC(=O)N2CC3(CCN(CC4(C)CCC(c5ccc(Cl)cc5)=C(CN5CCN(c6ccc(C(=O)NS(=O)(=O)c7ccc(N[C@H](CCN8CCOCC8)CSc8ccccc8)c(S(=O)(=O)C(F)(F)F)c7)cc6)CC5)C4)CC3)C2)C(C)(C)C)cc1 (stereo partly drawn) [degrader #31, (2S,4R)-1-((2S)-2-(7-(7-((4′-chloro-4-methyl-6-((4-(4-(((4-(((R)-4-morpholino-1-(phenylthio)butan-2-yl)amino)-3-((trifluoromethyl)sulfonyl)phenyl)sulfonyl)carbamoyl)phenyl)piperazin-1-yl)methyl)-2,3,4,5-tetrahydro-[1,1′-biphenyl]-4-yl)methyl)-2,7-diazaspiro[3.5]nonan-2-yl)-7-oxoheptanamido)-3,3-dimethylbutanoyl)-4-hydroxy-N—((S)-1-(4-(4-methylthiazol-5-yl)phenyl)ethyl)pyrrolidine-2-carboxamide]",IC50,"MOLT-4 cells; Homo sapiens, MOLT-4, 48 h",50 to 150 nM
same,IC50,"RS4;11 cells; Homo sapiens, RS4-11, 48 h",< 50 nM
"Cc1ncsc1-c1ccc([C@H](C)NC(=O)[C@@H]2C[C@@H](O)CN2C(=O)[C@@H](NC(=O)CCCCCC(=O)N2CCC(c3ccc(Cl)cc3)=C(CN3CCN(c4ccc(C(=O)NS(=O)(=O)c5ccc(N[C@H](CCN6CCOCC6)CSc6ccccc6)c(S(=O)(=O)C(F)(F)F)c5)cc4)CC3)C2)C(C)(C)C)cc1 [compound 80, (2S,4R)-1-((S)-2-(7-(4-(4-chlorophenyl)-5-((4-(4-(((4-(((R)-4-morpholino-1-(phenylthio)butan-2-yl)amino)-3-((trifluoromethyl)sulfonyl)phenyl)sulfonyl)carbamoyl)phenyl)piperazin-1-yl)methyl)-3,6-dihydropyridin-1(2H)-yl)-7-oxoheptanamido)-3,3-dimethylbutanoyl)-4-hydroxy-N—((S)-1-(4-(4-methylthiazol-5-yl)phenyl)ethyl)pyrrolidine-2-carboxamide]",IC50,"MOLT-4 cells; Homo sapiens, MOLT-4, 48 h",> 500 nM
same,IC50,"RS4;11 cells; Homo sapiens, RS4-11, 48 h",> 500 nM
"CC1(CNC(=O)CCCCCCNc2cccc3c2C(=O)N(C2CCC(=O)NC2=O)C3=O)CCC(c2ccc(Cl)cc2)=C(CN2CCN(c3ccc(C(=O)NS(=O)(=O)c4ccc(N[C@H](CCN5CCOCC5)CSc5ccccc5)c(S(=O)(=O)C(F)(F)F)c4)cc3)CC2)C1 (stereo partly drawn) [compound 72, 4-(4-((4′-chloro-4-((7-((2-(2,6-dioxopiperidin-3-yl)-1,3-dioxoisoindolin-4-yl)amino)heptanamido)methyl)-4-methyl-3,4,5,6-tetrahydro-[1,1′-biphenyl]-2-yl)methyl)piperazin-1-yl)-N-((4-(((R)-4-morpholino-1-(phenylthio)butan-2-yl)amino)-3-((trifluoromethyl)sulfonyl)phenyl)sulfonyl)benzamide]",IC50,"MOLT-4 cells; Homo sapiens, MOLT-4, 48 h",< 50 nM
same,IC50,"RS4;11 cells; Homo sapiens, RS4-11, 48 h",< 50 nM
Cc1ncsc1-c1ccc([C@H](C)NC(=O)[C@@H]2C[C@@H](O)CN2C(=O)[C@@H](NC(=O)CCCC(=O)N2CCN(CCN(C)CC3(C)CCC(c4ccc(Cl)cc4)=C(CN4CCN(c5ccc(C(=O)NS(=O)(=O)c6ccc(N[C@H](CCN7CCOCC7)CSc7ccccc7)c(S(=O)(=O)C(F)(F)F)c6)cc5)CC4)C3)CC2)C(C)(C)C)cc1 (some centres unmarked) [compound 57],IC50,"MOLT-4 cells; Homo sapiens, MOLT-4, 48 h",150 to 500 nM
same,IC50,"RS4;11 cells; Homo sapiens, RS4-11, 48 h",150 to 500 nM
Cc1ncsc1-c1ccc([C@H](C)NC(=O)[C@@H]2C[C@@H](O)CN2C(=O)[C@@H](NC(=O)CCCCC(=O)N2CCN(CCN(C)CC3(C)CCC(c4ccc(Cl)cc4)=C(CN4CCN(c5ccc(C(=O)NS(=O)(=O)c6ccc(N[C@H](CCN7CCOCC7)CSc7ccccc7)c(S(=O)(=O)C(F)(F)F)c6)cc5)CC4)C3)CC2)C(C)(C)C)cc1 (some centres unmarked) [compound 58],IC50,"MOLT-4 cells; Homo sapiens, MOLT-4, 48 h",50 to 150 nM
same,IC50,"RS4;11 cells; Homo sapiens, RS4-11, 48 h",50 to 150 nM
